Data as given in patent US10538555B2, “Macrocyclic inhibitors of the PD-1/PD-L1 and CD80(B7-1)/PD-L1 protein/protein interactions” (BRISTOL-MYERS SQUIBB COMPANY, priority 2014, dated 2020).
“And” between values parts separate entries of the source, which are not always exact repeats. Identical values can stand only once. *1 amine or outer side, *2 acyl side, *3 side chain or, on linkers, in order; H or OH if unused. Where a SMILES comes first, the peptide text is derived from it. Bridges are numbered along the chain shown (N, C = ends). [ ]: non-standard residue; d: D form. ξ: configuration not given here. Trp(1-CH2COOH) = N[C@@H](Cc1cn(CC(=O)O)c2ccccc12)C(=O)O; Phe(3,4,5-F3) = N[C@@H](Cc1cc(F)c(F)c(F)c1)C(=O)O; NMePhe(4-F) = CN[C@@H](Cc1ccc(F)cc1)C(=O)O; d(cisHyp) = O=C(O)[C@H]1C[C@@H](O)CN1; Bta = N[C@@H](Cc1csc2ccccc12)C(=O)O; Hyp = O=C(O)[C@@H]1C[C@@H](O)CN1; NMeF = CN[C@@H](Cc1ccccc1)C(=O)O; X1 = O=C([C@H]1COCCN1[*:1])[*:2]; dHyp = O=C(O)[C@H]1C[C@H](O)CN1; NMeNle = CCCC[C@H](NC)C(=O)O; Pip = O=C(O)[C@@H]1CCCCN1; dPip = O=C(O)[C@H]1CCCCN1; hSer = N[C@@H](CCO)C(=O)O; NMeA = CN[C@@H](C)C(=O)O; Orn = NCCC[C@H](N)C(=O)O; dNMeA = CN[C@H](C)C(=O)O; Dab = NCC[C@H](N)C(=O)O; Dap = NC[C@H](N)C(=O)O; ξC = NC(CS)C(=O)O

These molecules were tested against T1, Human PD-L1/PD-1 (Homo sapiens, UniProt Q9NZQ7) (assay: HTRF Human PD-L1/PD-1 binding assay (PD-1-Ig/PD-L1-His)). Details: PD-L1-His 10 nM, PD-1-Ig 20 nM; class symbol; read-out: HTRF Human PD-L1/PD-1 Binding Assay IC50 Range.
T1 construct: TVMV protease cleavage site (C); made in house; host or cells: HEK293T cells
In short: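 HTRF competition using HEK293T-expressed human PD-1(25-167)-Ig at 20 nM and PD-L1(18-239)-His at 10 nM, compound incubated first with PD-L1 for 15 min, then with PD-1 for 15 min. Signal read as 665/620 nm ratio 30 min after adding Eu anti-Ig and APC anti-His antibodies.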

T1 sequence (Q9NZQ7 with tags, fused parts or gaps): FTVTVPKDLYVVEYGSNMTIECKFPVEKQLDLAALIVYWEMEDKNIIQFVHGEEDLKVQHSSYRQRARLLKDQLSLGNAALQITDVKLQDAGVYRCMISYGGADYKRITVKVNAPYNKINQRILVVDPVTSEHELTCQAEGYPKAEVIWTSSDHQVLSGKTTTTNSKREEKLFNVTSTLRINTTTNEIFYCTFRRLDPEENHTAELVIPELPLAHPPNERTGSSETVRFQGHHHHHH

SMILES	IC50
CCCC[C@H]1C(=O)N(C)[C@@H](CCCC)C(=O)N[C@@H](CCC(=O)O)C(=O)N[C@H](C(=O)NCC(N)=O)CSCC(=O)N[C@@H](Cc2ccc(O)cc2)C(=O)N2CCCC[C@H]2C(=O)N[C@@H](CC(N)=O)C(=O)N2CCC[C@H]2C(=O)N[C@@H](Cc2cnc[nH]2)C(=O)N[C@@H](CCCCN)C(=O)N2C[C@H](O)C[C@H]2C(=O)N[C@@H](Cc2c[nH]c3ccccc23)C(=O)N[C@@H](CCCCN)C(=O)N[C@@H](Cc2cn(CC(=O)O)c3ccccc23)C(=O)N1C [Example 1303] ({CH2CO}-Y[Pip]NPHK[Hyp]WK[Trp(1-CH2COOH)][NMeNle][NMeNle]ECG-NH2; thioether N-14)	10 to 99.9 nM
CCCC[C@H]1C(=O)N(C)[C@@H](CCCC)C(=O)N[C@@H](CCCNC(=N)N)C(=O)NC(C(=O)NCC(N)=O)CSCC(=O)N[C@@H](Cc2ccc(O)cc2)C(=O)N(C)[C@@H](C)C(=O)N[C@@H](CC(N)=O)C(=O)N2CCC[C@H]2C(=O)N[C@@H](CC(N)=O)C(=O)N[C@@H](CC(C)C)C(=O)N2C[C@H](O)C[C@H]2C(=O)N[C@@H](Cc2c[nH]c3ccccc23)C(=O)N[C@@H](CCO)C(=O)N[C@@H](Cc2c[nH]c3ccccc23)C(=O)N1C (stereo partly drawn) [Example 9130] ({CH2CO}-Y[NMeA]NPNL[Hyp]W[hSer]W[NMeNle][NMeNle]R[ξC]G-NH2; thioether N-14)	1 to 9.9 nM
CCCC[C@H]1C(=O)N(C)[C@@H](CCCC)C(=O)N[C@@H](CC(C)C)C(=O)NC(C(=O)NCC(N)=O)CSCC(=O)N[C@@H](Cc2ccc(O)cc2)C(=O)N(C)[C@@H](C)C(=O)N[C@@H](CC(N)=O)C(=O)N2CCC[C@H]2C(=O)N[C@@H](CC(N)=O)C(=O)N[C@@H](CC(C)C)C(=O)N2CCC[C@H]2C(=O)N[C@@H](Cc2csc3ccccc23)C(=O)N[C@@H](CO)C(=O)N[C@@H](Cc2c[nH]c3ccccc23)C(=O)N1C (stereo partly drawn) [Example 9160] ({CH2CO}-Y[NMeA]NPNLP[Bta]SW[NMeNle][NMeNle]L[ξC]G-NH2; thioether N-14)	10 to 99.9 nM
CCCC[C@H]1C(=O)N2CCC[C@@H]2C(=O)N[C@@H](CC(=O)O)C(=O)N[C@@H](C(C)C)C(=O)N(C)[C@@H](Cc2ccccc2)C(=O)N[C@@H](CCC(=O)O)C(=O)N2CCOC[C@@H]2C(=O)N[C@@H](Cc2c[nH]c3ccccc23)C(=O)N[C@@H](Cc2ccc(O)cc2)C(=O)N[C@@H](CC(C)C)C(=O)N[C@H](C(=O)NCC(N)=O)CSCC(=O)N[C@@H](Cc2cc(F)c(F)c(F)c2)C(=O)N(C)[C@@H](Cc2ccc(F)cc2)C(=O)N1C [Example 10593] ({CH2CO}-[Phe(3,4,5-F3)][NMePhe(4-F)][NMeNle][dP]DV[NMeF]E[X1]WYLCG-NH2; thioether N-13)	1 to 9.9 nM
CCCC[C@H]1C(=O)N(C)[C@@H](CCCC)C(=O)N[C@@H](C)C(=O)N[C@H](C(=O)NCC(N)=O)CSCC(=O)N[C@@H](Cc2ccc(O)cc2)C(=O)N(C)[C@@H](C)C(=O)N[C@@H](CC(=O)O)C(=O)N2CCC[C@H]2C(=O)N[C@@H](Cc2cnc[nH]2)C(=O)N[C@@H](CCCN)C(=O)N2C[C@H](O)C[C@H]2C(=O)N[C@@H](Cc2c[nH]c3ccccc23)C(=O)N[C@@H](CO)C(=O)N[C@@H](Cc2cn(CC(=O)O)c3ccccc23)C(=O)N1C [Example 6249] ({CH2CO}-Y[NMeA]DPH[Orn][Hyp]WS[Trp(1-CH2COOH)][NMeNle][NMeNle]ACG-NH2; thioether N-14)	1 to 9.9 nM
CCCC[C@H]1C(=O)N2C[C@H](O)C[C@@H]2C(=O)N[C@@H](CC(=O)O)C(=O)N[C@@H](C(C)C)C(=O)N(C)[C@@H](Cc2ccccc2)C(=O)N[C@@H](Cc2ccc(O)cc2)C(=O)N2CCOC[C@@H]2C(=O)N[C@@H](Cc2c[nH]c3ccccc23)C(=O)N[C@@H](Cc2ccc(OC)cc2)C(=O)N[C@@H](CCOC)C(=O)N[C@H](C(=O)NCC(N)=O)CSCC(=O)N[C@@H](Cc2cc(F)c(F)c(F)c2)C(=O)N(C)[C@@H](Cc2ccccc2)C(=O)N1C [Example 10179] ({CH2CO}-[Phe(3,4,5-F3)][NMeF][NMeNle][d(cisHyp)]DV[NMeF]Y[X1]WY(Me)[hSer](Me)CG-NH2; thioether N-13)	10 to 99.9 nM
CCCC[C@H]1C(=O)N(C)[C@@H](CCCC)C(=O)N[C@@H](CN)C(=O)N[C@H](C(=O)NCC(N)=O)CSCC(=O)N[C@@H](Cc2ccc(O)cc2)C(=O)N(C)[C@@H](C)C(=O)N[C@@H](CC(=O)O)C(=O)N2CCC[C@H]2C(=O)N[C@@H](Cc2c[nH]cn2)C(=O)N[C@@H](CCC(=O)O)C(=O)N2C[C@H](O)C[C@H]2C(=O)N[C@@H](Cc2c[nH]c3ccccc23)C(=O)N[C@@H](CCN)C(=O)N[C@@H](Cc2cn(CC(=O)O)c3ccccc23)C(=O)N1C (single isomer, unassigned) [Example 5203]	1 to 9.9 nM

Continued, values first:

IC50	SMILES
1 to 9.9 nM	CC(C)[C@@H]1NC(=O)[C@H](CCC(=O)O)NC(=O)[C@@H](C)N(C)C(=O)[C@H](C)N(C)C(=O)[C@H](Cc2ccccc2)N(C)C(=O)[C@H](Cc2cc(F)c(F)c(F)c2)NC(=O)CSC[C@@H](C(=O)NCC(N)=O)NC(=O)[C@H](CCCN)NC(=O)[C@H](Cc2ccc(O)cc2)NC(=O)[C@H](Cc2c[nH]c3ccccc23)NC(=O)[C@@H](C)N(C)C(=O)[C@H](Cc2ccc(O)cc2)NC(=O)[C@H](Cc2ccccc2)N(C)C1=O [Example 9194] ({CH2CO}-[Phe(3,4,5-F3)][NMeF][NMeA][dNMeA]EV[NMeF]Y[dNMeA]WY[Orn]CG-NH2; thioether N-13)
1 to 9.9 nM	CCCC[C@H]1C(=O)N(C)[C@@H](CCCC)C(=O)N[C@@H](CCC(=O)O)C(=O)NC(C(=O)NCC(N)=O)CSCC(=O)N[C@@H](Cc2ccc(O)cc2)C(=O)N(C)[C@@H](C)C(=O)N[C@@H](CC(N)=O)C(=O)N2CCC[C@H]2C(=O)N[C@@H](Cc2c[nH]cn2)C(=O)N[C@@H](CC(N)=O)C(=O)N2C[C@H](O)C[C@H]2C(=O)N[C@@H](Cc2c[nH]c3ccccc23)C(=O)N[C@@H](CO)C(=O)N[C@@H](Cc2c[nH]c3ccccc23)C(=O)N1C (stereo partly drawn) [Example 9171] ({CH2CO}-Y[NMeA]NPHN[Hyp]WSW[NMeNle][NMeNle]E[ξC]G-NH2; thioether N-14)
10 to 99.9 nM	CCCC[C@H]1C(=O)N2C[C@H](O)C[C@@H]2C(=O)N[C@@H](CC(=O)O)C(=O)N[C@@H](C(C)C)C(=O)N(C)[C@@H](Cc2ccccc2)C(=O)N[C@@H](CCC(=O)O)C(=O)N2C[C@@H](O)C[C@@H]2C(=O)N[C@@H](Cc2c[nH]c3ccccc23)C(=O)N[C@@H](Cc2ccc(O)cc2)C(=O)N[C@@H](CCCN)C(=O)N[C@H](C(=O)NCC(N)=O)CSCC(=O)N[C@@H](Cc2cc(F)c(F)c(F)c2)C(=O)N(C)[C@@H](Cc2ccccc2)C(=O)N1C [Example 9374] ({CH2CO}-[Phe(3,4,5-F3)][NMeF][NMeNle][d(cisHyp)]DV[NMeF]E[dHyp]WY[Orn]CG-NH2; thioether N-13)
1 to 9.9 nM	CCCC[C@H]1C(=O)N(C)[C@@H](CCCC)C(=O)N[C@@H](CO)C(=O)N[C@H](C(=O)NCC(N)=O)CSCC(=O)N[C@@H](Cc2ccc(OC)cc2)C(=O)N(C)[C@@H](C)C(=O)N[C@@H](CC(N)=O)C(=O)N2CCC[C@H]2C(=O)N[C@@H](CO)C(=O)N[C@@H](CCC(N)=O)C(=O)N2C[C@H](O)C[C@H]2C(=O)N[C@@H](Cc2c[nH]c3ccccc23)C(=O)N[C@@H](CO)C(=O)N[C@@H](Cc2c[nH]c3ccccc23)C(=O)N1C [Example 7138] ({CH2CO}-Y(Me)[NMeA]NPSQ[Hyp]WSW[NMeNle][NMeNle]SCG-NH2; thioether N-14)
1 to 9.9 nM	CCCC[C@H]1C(=O)N2C[C@H](O)C[C@@H]2C(=O)N[C@@H](CC(=O)O)C(=O)N[C@@H](C(C)C)C(=O)N(C)[C@@H](Cc2ccccc2)C(=O)N[C@@H](CCCN)C(=O)N2CCOC[C@@H]2C(=O)N[C@@H](Cc2c[nH]c3ccccc23)C(=O)N[C@@H](Cc2ccc(O)cc2)C(=O)N[C@@H](CCO)C(=O)N[C@H](C(=O)NCC(N)=O)CSCC(=O)N[C@@H](Cc2cc(F)c(F)c(F)c2)C(=O)N(C)[C@@H](Cc2ccccc2)C(=O)N1C [Example 10158] ({CH2CO}-[Phe(3,4,5-F3)][NMeF][NMeNle][d(cisHyp)]DV[NMeF][Orn][X1]WY[hSer]CG-NH2; thioether N-13)
100 to 990 nM and 10 to 99.9 nM	CCCC[C@H]1C(=O)N(C)[C@@H](CCCC)C(=O)N[C@@H](CCC(=O)O)C(=O)N[C@H](C(=O)NCC(N)=O)CSCC(=O)N[C@@H](Cc2ccc(OC)cc2)C(=O)N(C)[C@@H](C)C(=O)N[C@@H](CCN)C(=O)N2CCC[C@H]2C(=O)N[C@@H](Cc2cnc[nH]2)C(=O)N[C@@H](CCC(=O)O)C(=O)N2C[C@H](O)C[C@H]2C(=O)N[C@@H](Cc2c[nH]c3ccccc23)C(=O)N[C@@H](CC(=O)O)C(=O)N[C@@H](Cc2c[nH]c3ccccc23)C(=O)N1C [Example 7132] ({CH2CO}-Y(Me)[NMeA][Dab]PHE[Hyp]WDW[NMeNle][NMeNle]ECG-NH2; thioether N-14)
1 to 9.9 nM	CCCC[C@H]1C(=O)N2C[C@@H](O)C[C@@H]2C(=O)N[C@@H](CC(=O)O)C(=O)N[C@@H](C(C)C)C(=O)N(C)[C@@H](Cc2ccccc2)C(=O)N[C@@H](CCC(=O)O)C(=O)N2CCCC[C@@H]2C(=O)N[C@@H](Cc2c[nH]c3ccccc23)C(=O)N[C@@H](Cc2ccc(O)cc2)C(=O)N[C@@H](CN)C(=O)N[C@H](C(=O)NCC(N)=O)CSCC(=O)N[C@@H](Cc2cc(F)c(F)c(F)c2)C(=O)N(C)[C@@H](Cc2ccc(F)cc2)C(=O)N1C [Example 10567] ({CH2CO}-[Phe(3,4,5-F3)][NMePhe(4-F)][NMeNle][dHyp]DV[NMeF]E[dPip]WY[Dap]CG-NH2; thioether N-13)

Same assay, conditions: PD-L1-His 10 nM, PD-1-Ig 20 nM; read-out: HTRF Human PD-L1/PD-1 Binding Assay IC50

IC50	SMILES
304 nM	CCCC[C@H]1C(=O)N(C)[C@@H](CCCC)C(=O)N[C@@H](CCCN)C(=O)N[C@H](C(=O)NCC(N)=O)CSCC(=O)N[C@@H](Cc2ccc(OC)cc2)C(=O)N(C)[C@@H](C)C(=O)N[C@@H](CCN)C(=O)N2CCC[C@H]2C(=O)N[C@@H](Cc2cnc[nH]2)C(=O)N[C@@H](CCCCN)C(=O)N2C[C@H](O)C[C@H]2C(=O)N[C@@H](Cc2c[nH]c3ccccc23)C(=O)N[C@@H](CC(=O)O)C(=O)N[C@@H](Cc2c[nH]c3ccccc23)C(=O)N1C [Example 7107] ({CH2CO}-Y(Me)[NMeA][Dab]PHK[Hyp]WDW[NMeNle][NMeNle][Orn]CG-NH2; thioether N-14)
